These results are taken from US5760285A, “Phosphonyldipeptides useful in the treatment of cardiovascular diseases” (priority 1994, dated 1998).

Structures are written as SMILES.

One may read the IC50 as the concentration needed to halve the response being measured.

The target in one assay is T1, NEP (Rattus norvegicus, UniProt P07861).
T1 construct: Membranes from kidney cortex were prepared according to the following procedure; from tissue; host or cells: rat kidney cortex membranes
T1 sequence (P07861 1-750): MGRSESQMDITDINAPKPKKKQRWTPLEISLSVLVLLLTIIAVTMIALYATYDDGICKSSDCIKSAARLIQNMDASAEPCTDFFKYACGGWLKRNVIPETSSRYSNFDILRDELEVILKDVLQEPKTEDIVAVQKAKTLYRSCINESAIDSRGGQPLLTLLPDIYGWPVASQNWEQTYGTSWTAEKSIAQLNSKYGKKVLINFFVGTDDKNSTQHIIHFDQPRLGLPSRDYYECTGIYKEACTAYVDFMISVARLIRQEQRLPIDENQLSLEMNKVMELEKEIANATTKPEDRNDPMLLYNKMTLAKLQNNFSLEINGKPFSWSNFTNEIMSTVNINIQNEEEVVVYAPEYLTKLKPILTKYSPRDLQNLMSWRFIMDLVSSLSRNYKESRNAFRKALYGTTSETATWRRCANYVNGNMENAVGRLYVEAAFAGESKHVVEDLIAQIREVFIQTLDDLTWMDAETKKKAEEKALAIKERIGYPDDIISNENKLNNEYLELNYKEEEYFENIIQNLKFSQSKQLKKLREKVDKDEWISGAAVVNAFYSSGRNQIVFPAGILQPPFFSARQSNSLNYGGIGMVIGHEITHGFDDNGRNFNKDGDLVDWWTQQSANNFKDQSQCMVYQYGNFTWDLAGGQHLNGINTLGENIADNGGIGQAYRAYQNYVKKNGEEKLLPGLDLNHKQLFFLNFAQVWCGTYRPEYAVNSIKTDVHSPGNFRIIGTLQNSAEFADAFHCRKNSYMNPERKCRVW
As to the kind of experiment: "In vitro" NEP-inhibitory activity (rat kidney cortex membranes, [3H][Leu5]-enkephaline). The note with it: membranes from rat kidney cortex. Format: biochemical. How it is done:
a) NEP-inhibitory activity
Membranes from kidney cortex were prepared according to the following procedure.
Cortex was carefully dissected, finely minced and suspended in a homogenization buffer (10 mM sodium phosphate pH 7.4 containing 1 mM MgCl2, 30 mM NaCl, 0.02% NaN3) 1:15 weight/volume.
The tissue was then homogenized for 30 seconds using an Ultra-Turrax homogenizer.
The membranes were collected from the buffer/sucrose interface, washed twice with 50 mM TRIS/HCl buffer (pH 7.4) and resuspended into the same buffer for storage.
The membranes were stored in small aliquots at -80° C. until use.
The NEP-inhibitory activity was evaluated by using the following method.
Incubation (20 minutes at 30° C.) was stopped by adding HCl 0.1M (100 μl).

In a further assay the target is T2, ACE (Oryctolagus cuniculus, UniProt P12822).
T2 construct: ACE (250 mU/ml purified by lung rabbit, EC 3.4.15.1 SIGMA); purchased SIGMA; host or cells: rabbit lung
T2 sequence (P12822 34-1310): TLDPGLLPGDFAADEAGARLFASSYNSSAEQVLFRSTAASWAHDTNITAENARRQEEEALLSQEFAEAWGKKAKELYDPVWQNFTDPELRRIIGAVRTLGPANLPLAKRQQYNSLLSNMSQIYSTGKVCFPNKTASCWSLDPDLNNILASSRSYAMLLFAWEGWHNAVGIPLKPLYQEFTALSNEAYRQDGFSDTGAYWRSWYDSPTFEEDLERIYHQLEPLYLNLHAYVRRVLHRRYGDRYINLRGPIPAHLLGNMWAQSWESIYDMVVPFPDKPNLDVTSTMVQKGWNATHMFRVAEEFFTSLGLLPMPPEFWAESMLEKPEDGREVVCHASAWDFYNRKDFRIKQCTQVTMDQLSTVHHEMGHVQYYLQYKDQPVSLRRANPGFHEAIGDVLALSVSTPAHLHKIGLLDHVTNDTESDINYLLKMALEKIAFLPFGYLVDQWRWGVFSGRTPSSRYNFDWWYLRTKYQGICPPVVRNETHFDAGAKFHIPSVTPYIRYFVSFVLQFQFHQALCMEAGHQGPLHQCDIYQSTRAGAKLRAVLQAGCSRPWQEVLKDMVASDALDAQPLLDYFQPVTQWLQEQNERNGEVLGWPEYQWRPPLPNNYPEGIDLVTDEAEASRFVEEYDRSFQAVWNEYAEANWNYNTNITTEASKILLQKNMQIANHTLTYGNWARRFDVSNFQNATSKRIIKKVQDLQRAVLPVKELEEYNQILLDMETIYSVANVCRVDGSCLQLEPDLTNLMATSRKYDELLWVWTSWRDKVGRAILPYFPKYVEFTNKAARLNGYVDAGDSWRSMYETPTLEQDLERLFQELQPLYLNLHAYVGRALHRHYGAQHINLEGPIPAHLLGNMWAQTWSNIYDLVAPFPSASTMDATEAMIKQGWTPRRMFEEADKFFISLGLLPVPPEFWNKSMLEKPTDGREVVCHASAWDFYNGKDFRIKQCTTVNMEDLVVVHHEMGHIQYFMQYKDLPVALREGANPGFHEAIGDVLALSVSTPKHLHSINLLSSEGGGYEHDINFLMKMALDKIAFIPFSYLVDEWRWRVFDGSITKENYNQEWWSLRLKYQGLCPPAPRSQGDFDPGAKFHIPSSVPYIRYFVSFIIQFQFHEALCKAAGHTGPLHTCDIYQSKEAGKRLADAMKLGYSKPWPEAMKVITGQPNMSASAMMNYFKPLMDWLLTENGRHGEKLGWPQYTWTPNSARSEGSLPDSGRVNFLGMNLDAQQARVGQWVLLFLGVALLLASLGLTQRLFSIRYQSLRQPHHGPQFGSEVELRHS
The assay can be described thus: "In vitro" ACE-inhibitory activity (FAPGG substrate). Format: biochemical. Particulars: ACE purified by lung rabbit; tested as lithium salts. Here is the method: b) ACE-inhibitory activity
The reaction was started by adding furylacryloylphenylalanylglycylglycine 0.8 mM (FAPGG-SIGMA).
Contemporaneously, by using a Beckman DU-50 spectrophotometer provided with a program for calculating delta A/minutes and regression coefficients of the enzyme kinetics curves, the absorbance at 340 nm was recorded in continuo for 5 minutes.

`O=C([O-])[C@H](Cc1ccccc1)NC(=O)[C@H](Cc1ccccc1)NP(=O)(O)CCCCc1ccccc1.O=C([O-])[C@H](Cc1ccccc1)NC(=O)[C@H](Cc1ccccc1)NP(=O)(O)CCCCc1ccccc1.[Li+].[Li+]` [Compound R-5, N-[N'-(4-phenyl)butylphosphonyl-L-phenylalanyl]-L-phenylalanine dilithium salt]: the NEP inhibition on NEP (at a concentration corresponding to 10^-8 M) is 42%. Also, the IC50 on ACE amounted to 20 nM.

Regarding `C[C@H](CS)C(=O)N1CCC[C@H]1C(=O)O` [Captopril], on NEP (tested as lithium salts), the “NEP-inhibitory activity IC50 (nM)” value was “not active”.
